In ChEMBL document CHEMBL1123575, “In search of the digitalis replacement” (J Med Chem, 1987):
“And” between values parts separate entries of the source, which are not always exact repeats. Identical values can stand only once.

Experiments:
[1] = target: T1, Phosphodiesterase; PDE3 & PDE4 (Homo sapiens) (UniProt P27815+Q14432+Q08499+Q07343+Q13370+Q08493); experiment: Inhibition of cAMP Phosphodiesterase enzyme.; format: protein assay
[2] = target: T1, Phosphodiesterase; PDE3 & PDE4 (Homo sapiens); experiment: Compound was evaluated for its inotropic activity by the inhibition of cAMP Phosphodiesterase enzyme; format: protein assay
[3] = target: Beta-1 adrenergic receptor (Homo sapiens) (UniProt P08588)
Description: Positive inotropic effects by direct or indirect beta-1 adrenergic receptor activation.

[4] = Compound was evaluated for its inotropic activity by its ability to increase Myofibrillar Ca++ sensitivity.; format: functional
[5] = target: Beta-1 adrenergic receptor (Homo sapiens) (UniProt P08588); experiment: Compound was tested for its inotropic effect by activation of beta-1 adrenergic receptor directly or indirectly; activity values are 70,71
[6] = target: Beta-1 adrenergic receptor (Homo sapiens) (UniProt P08588); experiment: Compound was tested for its inotropic effect by activation of beta-1 adrenergic receptor directly or indirectly; activity values are 73,75

Chain of Beta-1 adrenergic receptor (Homo sapiens) (P08588 whole entry, looked up): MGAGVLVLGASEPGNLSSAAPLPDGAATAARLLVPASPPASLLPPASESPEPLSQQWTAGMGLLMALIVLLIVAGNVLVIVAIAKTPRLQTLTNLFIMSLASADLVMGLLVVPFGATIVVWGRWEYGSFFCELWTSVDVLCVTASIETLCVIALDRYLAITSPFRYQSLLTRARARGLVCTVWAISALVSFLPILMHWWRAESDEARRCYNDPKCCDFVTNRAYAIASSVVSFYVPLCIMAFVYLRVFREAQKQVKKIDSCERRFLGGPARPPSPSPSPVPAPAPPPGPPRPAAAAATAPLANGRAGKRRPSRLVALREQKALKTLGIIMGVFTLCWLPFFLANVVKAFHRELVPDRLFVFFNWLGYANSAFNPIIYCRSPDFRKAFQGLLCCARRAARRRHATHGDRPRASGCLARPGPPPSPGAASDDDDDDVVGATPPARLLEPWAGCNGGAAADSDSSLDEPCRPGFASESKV

| SMILES | PDE inhibition [1] | Inotropic effect [3] | further results |
| --- | --- | --- | --- |
| CC(=O)Nc1ccc(-c2cnc(O)cn2)cc1 | 63 | – | – |
| Cc1nc(=O)c(C#N)c(NCc2cccnc2)[nH]1 | – | 66 | PDE inhibition [2]: 64 and 65 |
| C[C@H](CCc1ccc(O)cc1)NC[C@H](O)c1ccc(O)cc1 | – | 39 | – |
| O=C1CCC(c2ccc(-n3ccnc3)cc2)=NN1 | 76 | 78 | – |
| C[C@@H]1C(=O)NC2=Nc3cccc(Cl)c3CN21 | 88 | 89 | – |
| O=C1CCC(c2ccc3c(c2)NC(=O)CC3)=NN1 | 83 | – | – |
| CCCCNC(=O)NC1CCN(c2ncnc3cc(OC)c(OC)cc23)CC1 | 84 | 85 | – |
| OC(CNCCC1c2ccccc2Oc2ccccc21)COc1ccccc1 (stereo not given) | – | 45 and 44 | – |
| CCc1nc(O)ncc1-c1ccc(O)cc1 | 67 | 67 | – |
| CC1CC(O)=NN=C1c1ccc(-n2ccnc2)cc1 (stereo not given) | 76 | – | – |
| CN(C(=O)CCCOc1ccc2c(c1)CN1CC(=O)NC1=N2)C1CCCCC1 | 90 | – | – |
| COc1ccc2[nH]c(=O)nc(C)c2c1OC | 91 | – | – |
| Cc1[nH]c(=O)c(C#N)cc1-c1ccncc1 | 58 | – | – |
| Cc1nc(O)c(N)cc1-c1ccccc1 | 62 | – | Mechanistic reference [4]: 62 |
| CNCCc1ccc(OC(=O)C(C)C)c(OC(=O)C(C)C)c1 | – | 38 | – |
| CCc1[nH]c(=O)[nH]c1C(=O)c1ccncc1 | 68 | – | Inotropic effect [5]: 71 |
| CC(CCc1ccc(O)cc1)NCCc1ccc(O)c(O)c1 (stereo not given) | – | 26 | – |
| Oc1ccc(CCNCCCCCCNCCc2ccccc2)cc1O | – | 36 | – |
| CSc1ccc(C(=O)c2[nH]c(=O)[nH]c2C)cc1 | 72 | – | Inotropic effect [6]: 75 |
| Nc1cc(-c2ccncc2)c[nH]c1=O | – | 57 | PDE inhibition [2]: 57 and 56 and 24 |
| CCNC(=O)OC1CCN(c2nncc3cc(OC)c(OC)cc23)CC1 | 86 | 86 | – |
| CC(C)NC[C@H](O)COc1ccc(O)cc1 | – | 35 and 34 | – |
| COc1ccc(C(=O)N2CCN(c3ccc4c(c3)CCC(=O)N4)CC2)cc1OC | 87 | – | – |
| COc1ccc(-c2nc3cc(C4=NNC(=O)CC4C)ccc3[nH]2)cc1 (stereo not given) | – | 82 | PDE inhibition [2]: 81 and 80 |
